Patent US20080069849A1, “Novel Antimicrobial Peptides” (Dermagen AB, priority 2004, published 2008)
Read-outs that look alike come from different tables or passages of the source. Where a SMILES comes first, the peptide text is derived from it. Where no end group is shown, it is not given here. [ ]: non-standard residue; d: D form.

Columns and labels:
P. aeruginosa 27.1 = assay: Radial diffusion assay analysis of CNY variants (Example 4); type: cell-based, Pseudomonas aeruginosa; conditions: peptides 100 μM
Procedure: Radial diffusion assays (RDA) were performed essentially as described earlier (Andersson et al., Eur J Biochem, 2004, 271:1219-1226). Briefly, bacteria (P. aeruginosa 27.1) were grown to mid-logarithmic phase in 10 ml of full-strength (3% w/v) trypticase soy broth (TSB) (Becton-Dickinson, Cockeysville, Md.). The microorganisms were washed once with […] Tris, pH 7.4. 4×10^6 bacterial cfu or 1×10^5 fungal cfu was added to 5 ml of the underlay agarose gel, consisting of 0.03% (w/v) TSB, 1% (w/v) low-electroendosmosistype (Low-EEO) agarose (Sigma, St Louise Mo.) and a final concentration of 0.02% (v/v) Tween 20 (Sigma). The underlay was poured into a Ø 85 mm petri dish. After agarose solidified, 4 mm-diameter wells were punched and 6 μl of test sample was added to each well. Plates were incubated at 37° C. for 3 hours to allow diffusion of the peptides. The underlay gel was then covered with 5 ml of molten overlay (6% TSB and 1% Low-EEO agarose in dH2O). Antimicrobial activity of a peptide is visualized as a clear zone around each well after 18-24 hours of incubation at 37° C. Synthetic peptides were tested in concentrations of 100 μM to determine the antibacterial effect (FIG. 8). CNY21; […], CNY20; […], CNY21R-S; […], CNY20R-S; […], CNY21H-L: […], CNY21H-K: […], CNY21H-P: […].

[1] = Pore formation / carboxyfluorescein leakage of liposomes; conditions: 10 mM Tris, pH 7.4
Procedure: (§1) Peptides were tested for binding to lipid bilayers, resulting pore formation and peptide secondary structure in the lipid membranes. Lipid membranes investigated included both zwitterionic ones (containing phosphatidylcholine) and anionic ones (containing mixtures of phosphatidylcholine and phosphatidic acid). Lipid membranes were deposited at silica, and the binding of the peptides from 10 mM Tris, pH 7.4, was directly monitored by ellipsometry. […] Pore formation in these liposomes were determined by including carboxyfluorescein in the liposomes and following the fluorescence intensity increase on addition of peptides to the liposomes. Furthermore, the secondary structure of the peptides in the liposome lipid membranes was probed by circular dichroism.

Escherichia coli 37.4 = assay: Radial diffusion assay (RDA), E. coli 37.4; type: cell-based; conditions: for RDA (mm) E. coli 37.4 Mean: zone of inhibition
Procedure: (§2) Escherichia coli 37.4 isolate was originally obtained from a patient with a chronic venous ulcer, while Staphylococcus aureus isolate BD14312 was from a patient with atopic dermatitis. Staphylococcus aureus ATCC29213 and Candida albicans ATCC90028 were both obtained from the Clinical Bacteriology Department at Lund University hospital.
(§3) Essentially as described earlier (Lehrer et al., J Immunol Methods 137, 167-173, 1991, Andersson et al., Eur J Biochem 271, 1219-1226, 2004) bacteria were grown to mid-logarithmic phase in 10 ml of full-strength (3% w/v) trypticase soy broth (TSB) (Becton-Dickinson, Cockeysville, Md.). The microorganisms were then washed once with 10 mM Tris, pH 7.4.4×10^6 bacterial colony forming units were added to 15 ml of the underlay agarose gel, consisting of 0.03% (w/v) TSB, 1% (w/v) low electroendosmosis type (EEO) agarose (Sigma, St Louis Mo.) and 0.02% (v/v) Tween 20 (Sigma). The underlay was poured into a ø 144 mm petri dish. After agarose solidification, 4 mm-diameter wells were punched and 6 μl of test sample was added to each well. Plates were incubated at 37° C. for 3 hours to allow diffusion of the peptides. The underlay gel was then covered with 15 ml of molten overlay (6% TSB and 1% Low-EEO agarose in dH2O). Antimicrobial activity of a peptide is visualized as a zone of clearing around each well after 18-24 hours of incubation at 37° C.

[2] = system: Staphylococcus aureus isolate BD14312; assay: Radial diffusion assay (RDA), S. aureus BD14312; type: cell-based; conditions: zone of inhibition; mean of three measurements; Table 1
Procedure: as §2, §3

[3] = system: Staphylococcus aureus ATCC29213; assay: Radial diffusion assay (RDA), S. aureus ATCC29213; type: cell-based; conditions: zone of inhibition
Procedure: as §2, §3

[4] = system: Candida albicans ATCC90028; assay: Radial diffusion assay (RDA), Candida ATCC90028; type: cell-based; conditions: zone of inhibition; mean of three measurements; Table 1
Procedure: as §2, §3

[5] = Binding to lipid bilayers by ellipsometry; conditions: 10 mM Tris, pH 7.4
Procedure: as §1

erythrocytes = assay: Hemolysis assay (Example 11); type: cell-based; design: % Hemolysis Mean: dose or concentration left out as unconfirmed
Procedure: EDTA-blood was centrifuged at 800 g for 10 min, whereafter plasma and buffy coat were removed. The erythrocytes were washed three times and resuspended in 5% PBS, pH 7.4. The cells were then incubated with end-over-end rotation for 1 h at 37° C. in the presence of peptides ([…]). 2% Triton X-100 (Sigma-Aldrich) served as positive control. The samples were then centrifuged at 800 g for 10 min. The absorbance of hemoglobin release was measured at λ 540 nm and is in the plot expressed as % of TritonX-100 induced hemolysis.

[6] = system: Pseudomonas aeruginosa 15159; assay: Radial diffusion assay (RDA), P. aeruginosa 15159; type: cell-based; conditions: 100 μM of peptides, n=9
Procedure: as §3
Based on the criteria defined in EXAMPLE 1 several new variants with increased positive net charge, high helicity and increased amphipathicity were designed and synthesized. In order to rationally test as many different variants as possible a PEP screen library was utilized as described above. […]

[7] = Heparin binding on nitrocellulose with radiolabelled heparin; conditions: unlabelled heparin 6 mg/ml
Procedure: Peptides were tested for heparin binding activities. Peptides were applied on nitrocellulose membranes (Hybond, Amersham Biosciences). Membranes were blocked (PBS, pH 7.4, 0.25% Tween 20, 3% bovine serum albumin) for one hour and incubated with radiolabelled heparin for one hour in the same buffer. […] The membranes were washed (3×10 min in PBS, pH 7.4, 0.25% Tween 20). A Bas 2000 radio imaging system (Fuji) was used for visualization of radioactivity.

[8] = Table 2, second generation PEPscreen

CNYITELRRQKARASKLGLAR [CNY21H-K]
antibacterial effect in RDA (P. aeruginosa 27.1): larger anti-bacterial effect
pore formation and leakage of liposomes, order of efficiency [1]: CNY21H-L≈CNY21H-K>CNY21>CNY21H-P≧CNY21 R-S

CC[C@H](C)[C@H](NC(=O)[C@H](CCCCN)NC(=O)[C@H](CCC(=O)O)NC(=O)[C@H](CCCCN)NC(=O)[C@H](CO)NC(=O)[C@H](CCCCN)NC(=O)[C@H](CCCNC(=N)N)NC(=O)[C@H](Cc1ccccc1)NC(=O)[C@H](Cc1ccccc1)NC(=O)[C@H](CC(=O)O)NC(=O)CNC(=O)[C@H](CC(C)C)NC(=O)[C@@H](N)CC(C)C)C(=O)NCC(=O)N[C@@H](CCCCN)C(=O)N[C@@H](CCC(=O)O)C(=O)N[C@@H](Cc1ccccc1)C(=O)N[C@@H](CCCCN)C(=O)N[C@@H](CCCNC(=N)N)C(=O)N[C@H](C(=O)N[C@H](C(=O)N[C@@H](CCC(N)=O)C(=O)N[C@@H](CCCNC(=N)N)C(=O)N[C@H](C(=O)N[C@@H](CCCCN)C(=O)N[C@@H](CC(=O)O)C(=O)N[C@@H](Cc1ccccc1)C(=O)N[C@@H](CC(C)C)C(=O)N[C@@H](CCCNC(=N)N)C(=O)N[C@@H](CC(N)=O)C(=O)N[C@@H](CC(C)C)C(=O)N[C@H](C(=O)N1CCC[C@H]1C(=O)N[C@@H](CCCNC(=N)N)C(=O)N[C@H](C(=O)N[C@@H](CCC(=O)O)C(=O)N[C@@H](CO)C(=O)O)[C@@H](C)O)C(C)C)[C@@H](C)CC)C(C)C)[C@@H](C)CC [LL37, reference compound]
RDA (mm) E. coli 37.4 Mean (Escherichia coli 37.4; [8]): 5.604 mm
RDA (mm) E. coli 37.4 Mean (Escherichia coli 37.4; mean of six measurements, Table 1): 3.529 mm
RDA (mm) S. aureus BD14312 Mean [2]: 1.285 mm
RDA (mm) S. aureus ATCC29213 Mean [3, 8]: 8.755 mm
RDA (mm) S. aureus ATCC29213 Mean ([3]; mean of three measurements, Table 1): 2.215 mm
RDA (mm) Candida ATCC90028 Mean [4]: 2.43 mm

CNYITELSSQHASASHLGLAR [CNY21R-S]
binding to lipid membranes [5]: CNY21 shows a higher binding tendency than CNY21 R-S
pore formation and leakage of liposomes, order of efficiency [1]: CNY21H-L≈CNY21H-K>CNY21>CNY21H-P≧CNY21 R-S

CNYIEELLRQLAPASHKGLA [Peptide 148]
RDA (mm) E. coli 37.4 Mean (Escherichia coli 37.4; [8]): 2.900 mm
RDA (mm) S. aureus ATCC29213 Mean [3, 8]: 0.99 mm
% Hemolysis Mean (erythrocytes): 1.454%

CNYITELRRQHARASHLGLAR [CNY21]
binding to lipid membranes [5]: binds to zwitterionic and anionic lipid membranes
RDA mean value, E. coli (Escherichia coli 37.4; 100 μM of peptides, n=9): 6.02
RDA mean value, P. aeruginosa [6]: 5.00
pore formation and leakage of liposomes, order of efficiency [1]: CNY21H-L≈CNY21H-K>CNY21>CNY21H-P≧CNY21 R-S
heparin binding, competition by unlabelled heparin [7]: inhibited the binding

CNYIEELRRQLARALKKGLA [Peptide 142]
% Hemolysis Mean (erythrocytes; 1 h): 3.734%

CNYIEELLRQKARALHKGLA [Peptide 162]
% Hemolysis Mean (erythrocytes; 1 h): 2.056%

CNYIEELRRQWARALHKGLA [Peptide 175]
% Hemolysis Mean (erythrocytes; 1 h): 1.824%

CNYIEELKRQLARALHKGLA [Peptide 145]
% Hemolysis Mean (erythrocytes; 1 h): 2.495%

CNYIEELWRQLARALHKGLA [Peptide 176]
% Hemolysis Mean (erythrocytes; 1 h): 2.771%

CNYITELLRQLARATKKGLA [Peptide 152]
% Hemolysis Mean (erythrocytes; 1 h): 3.984%

CNYIEELLRQKARALKKGLA [Peptide 164]
% Hemolysis Mean (erythrocytes; 1 h): 2.340%

CNYITELRRQPARASPLGLAR [CNY21H-P]
antibacterial effect in RDA (P. aeruginosa 27.1): no antimicrobial effects
pore formation and leakage of liposomes, order of efficiency [1]: CNY21H-L≈CNY21H-K>CNY21>CNY21H-P≧CNY21 R-S

CC[C@@H](C)[C@@H](NC(=O)[C@@H](Cc1ccc(O)cc1)NC(=O)[C@@H](CC(N)=O)NC(=O)[C@H](N)CS)C(=O)N[C@@H](C(=O)N[C@H](CCC(=O)O)C(=O)N[C@H](CC(C)C)C(=O)N[C@H](CCCNC(=N)N)C(=O)N[C@H](CCCNC(=N)N)C(=O)N[C@H](CCC(N)=O)C(=O)N[C@H](Cc1c[nH]cn1)C(=O)N[C@H](C)C(=O)N[C@H](CCCNC(=N)N)C(=O)N[C@H](C)C(=O)N[C@H](CO)C(=O)N[C@H](Cc1c[nH]cn1)C(=O)N[C@H](CC(C)C)C(=O)NCC(=O)N[C@H](CC(C)C)C(=O)N[C@H](C)C(=O)O)[C@H](C)O [Peptide 182] (H-[dC][dN][dY][dI][dT][dE][dL][dR][dR][dQ][dH][dA][dR][dA][dS][dH][dL]G[dL][dA]-OH; N-terminus and C-terminus assumed)
% Hemolysis Mean (erythrocytes; 1 h): 2.659%

Ac-CNYIEELRRQLARALHKGLA-NH2 [Peptide 181]
RDA (mm) E. coli 37.4 Mean (Escherichia coli 37.4; [8]): 4.330 mm
RDA (mm) S. aureus ATCC29213 Mean [3, 8]: 4.24 mm
% Hemolysis Mean (erythrocytes; 1 h): 4.861%

CNYIWELRRQLARALHKGLA [Peptide 177]
% Hemolysis Mean (erythrocytes; 1 h): 3.175%

Ac-CNYITELLRQLARASKKGLA-NH2 [Peptide 180]
RDA (mm) E. coli 37.4 Mean (Escherichia coli 37.4; [8]): 5.933 mm
RDA (mm) S. aureus ATCC29213 Mean [3, 8]: 0 mm
% Hemolysis Mean (erythrocytes; 1 h): 5.447%

CNYIEELRRQLARAWHKGLA [Peptide 174]
% Hemolysis Mean (erythrocytes; 1 h): 2.056%

CNYITELRRQLARASLLGLAR [CNY21H-L]
antibacterial effect in RDA (P. aeruginosa 27.1): larger anti-bacterial effect
pore formation and leakage of liposomes, order of efficiency [1]: CNY21H-L≈CNY21H-K>CNY21>CNY21H-P≧CNY21 R-S

Ac-CNYITELRRQHARASHLGLA-NH2 [Peptide 179]
RDA (mm) E. coli 37.4 Mean (Escherichia coli 37.4; [8]): 2.677 mm
RDA (mm) S. aureus ATCC29213 Mean [3, 8]: 4.03 mm
% Hemolysis Mean (erythrocytes; 1 h): 2.495%

CNYITELLRQRARALKKGLA [Peptide 167]
% Hemolysis Mean (erythrocytes; 1 h): 2.642%

CNYITELLRQKARALHKGLA [Peptide 161]
% Hemolysis Mean (erythrocytes; 1 h): 1.902%
